These are literature values, as cited in paper PMC11902296, “cAmbly: A non-toxic cell-penetrating peptide derived from Amblyomin-X with targeted delivery to mitochondrial and cytoplasmic proteins” (PLOS One, 2025).

No end group written: not given here.

The subject of data set [1] is tumor cells. As to conditions: isolated domain of Amblyomin-X. The text has this:
Amblyomin-X is a promising antitumoral protein that requires cellular internalization to exert its activity.

Data set [2] relates to tumor cells. The conditions noted are these: isolated domain of Amblyomin-X. The text has this:
One promising candidate has emerged from Amblyomin-X, a Kunitz-type protease inhibitor derived from the salivary glands of the tick Amblyomma sculptum. […] Structurally, Amblyomin-X consists of two distinct regions: a non-permeant Kunitz-type domain located at the N-terminus, which mediates the protein’s cytotoxic activity, and a disordered C-terminal tail.
This is another data set of the same source.

As for “EEQTHFHFESPKLISFKVQDYWILNDIMKKNLTGISLKSEEEDADSGEID [cAmbly]”, the “ability to enter cells” value in data set [1] is on record as “can penetrate cells”. Moreover, in data set [2], the cytotoxic activity entry is “lacks cytotoxic activity”.
